Test results as given in patent US20020026053A1, “Novel 3-(substituted) -2- indolinones compounds and use thereof as inhibitors of protein kinase activity” (priority 1997, published 2002).

Legend:
FLK-1 receptor = assay: FLK-1 Assay (cellular/catalytic ELISA, VEGF-stimulated phosphotyrosine); format: cell-based; set-up: concentration or dose not given beside the values; conditions: protocol P.110
In short: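 NIH3T3 C7#3 cells engineered to express Flk-1 were serum-starved overnight (0.1% FBS), then exposed to compound for 2 h at 37 °C (final dilution 1:200, 0.5% DMSO) before VEGF stimulation. Lysates captured on anti-FLK-1 antiserum plates; phosphotyrosine detected by UB40 antibody/POD-ABTS ELISA versus untreated controls.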

PDGF-R = PDGF-R Assay (cellular ELISA, U1242 cells); format: cell-based; set-up: concentration or dose not given beside the values; conditions: protocol P.119
In short: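 U1242 cells seeded in 0.5% serum, serum-starved, then exposed to compound for 2 hr at 37°C before 5–10 min ligand stimulation and lysis in HNTG. Lysate captured on receptor-antibody-coated plates; phosphotyrosine detected with polyclonal anti-pTyr, goat anti-rabbit IgG and ABTS/H2O2, A410 (ref 630 nm), versus untreated cells.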

SMILES | Flk Kinase % Inhibition (P.110) (FLK-1 receptor) [%] | PDGF Kinase % Inhibition (P.119) (PDGF-R) [%]
Cc1c(Br)cc(Br)c2c1C(=Cc1cc(O)cc(O)c1)C(=O)N2 [10738/H07] | −17.4 | 
Cc1c(Br)cc(Br)c2c1C(=Cc1ccc(Cl)c(Cl)c1)C(=O)N2 [10738/H08] | −12.7 | 
COc1ccccc1C=C1C(=O)Nc2c(Br)cc(Br)c(C)c21 [10738/H09] | −6.5 | 
Cc1c(Br)cc(Br)c2c1C(=Cc1ccc(C(C)C)cc1)C(=O)N2 [10738/H10] | 1.7 | 
CCCOc1ccc(C=C2C(=O)Nc3c(Br)cc(Br)c(C)c32)cc1 [10738/H11] | −4.1 | 
COc1ccc(C=C2C(=O)Nc3c(Br)cc(Br)cc32)cc1C [10739/A02] | 1.2 | 21.7
O=C1Nc2c(Br)cc(Br)cc2C1=Cc1cccc(OCc2ccccc2)c1 [10739/A03] | 2.9 | 15.4
O=C1Nc2c(Br)cc(Br)cc2C1=Cc1ccc(OCc2ccccc2)cc1 [10739/A04] | −8.2 | 23.2
O=C1Nc2c(Br)cc(Br)cc2C1=CC1COc2ccccc2O1 (stereo not drawn) [10739/A05] | −11.0 | 15.9
O=C1Nc2c(Br)cc(Br)cc2C1=Cc1ccc(O)cc1Cl [10739/A06] | 7.4 | 17.8
O=C1Nc2c(Br)cc(Br)cc2C1=Cc1cc(O)c(O)c(O)c1 [10739/A07] | 4.1 | 34.8
COc1ccc(Oc2cccc(C=C3C(=O)Nc4c(Br)cc(Br)cc43)c2)cc1 [10739/A08] | −25.5 | 3.8
CN(C)CCCOc1ccc(C=C2C(=O)Nc3c(Br)cc(Br)cc32)cc1 [10739/A09] | −9.1 | −0.6
O=C1Nc2c(Br)cc(Br)cc2C1=Cc1ccoc1 [10739/A10] | −2.5 | −1.1
O=C1Nc2c(Br)cc(Br)cc2C1=Cc1ccc(CO)o1 [10739/A11] | 3.9 | 1.8
COc1ccc(C=C2C(=O)Nc3ccc(I)cc32)cc1C [10739/B02] | 2.1 | 5.2
O=C1Nc2ccc(I)cc2C1=Cc1cccc(OCc2ccccc2)c1 [10739/B03] | 3.5 | 1.8
O=C1Nc2ccc(I)cc2C1=Cc1ccc(OCc2ccccc2)cc1 [10739/B04] | 13.2 | 19.8
O=C1Nc2ccc(I)cc2C1=CC1COc2ccccc2O1 (stereo not drawn) [10739/B05] | 4.1 | 4.7
O=C1Nc2ccc(I)cc2C1=Cc1ccc(O)cc1Cl [10739/B06] | 9.3 | 6.7

SMILES | Flk Kinase % Inhibition (P.110) (FLK-1 receptor) [%] | PDGF Kinase % Inhibition (P.119) (PDGF-R) [%]
O=C1Nc2ccc(I)cc2C1=Cc1cc(O)c(O)c(O)c1 [10739/B07] | 1.1 | 19.8
COc1ccc(Oc2cccc(C=C3C(=O)Nc4ccc(I)cc43)c2)cc1 [10739/B08] | 6.5 | −0.1
CN(C)CCCOc1ccc(C=C2C(=O)Nc3ccc(I)cc32)cc1 [10739/B09] | −15.4 | 74.1
O=C1Nc2ccc(I)cc2C1=Cc1ccoc1 [10739/B10] | −10.1 | −16.1
O=C1Nc2ccc(I)cc2C1=Cc1ccc(CO)o1 [10739/B11] | 12.5 | −9.8
COc1ccc(C=C2C(=O)Nc3ccc(Br)c(C)c32)cc1C [10739/C02] | −10.8 | 10.6
Cc1c(Br)ccc2c1C(=Cc1cccc(OCc3ccccc3)c1)C(=O)N2 [10739/C03] | 16.4 | 10.1
Cc1c(Br)ccc2c1C(=Cc1ccc(OCc3ccccc3)cc1)C(=O)N2 [10739/C04] | 21.8 | 19.3
Cc1c(Br)ccc2c1C(=CC1COc3ccccc3O1)C(=O)N2 (stereo not drawn) [10739/C05] | 5.6 | 31.4
Cc1c(Br)ccc2c1C(=Cc1ccc(O)cc1Cl)C(=O)N2 [10739/C06] | 17.7 | 33.8
Cc1c(Br)ccc2c1C(=Cc1cc(O)c(O)c(O)c1)C(=O)N2 [10739/C07] | −14.5 | 44.5
COc1ccc(Oc2cccc(C=C3C(=O)Nc4ccc(Br)c(C)c43)c2)cc1 [10739/C08] | 4.8 | 11.0
Cc1c(Br)ccc2c1C(=Cc1ccc(OCCCN(C)C)cc1)C(=O)N2 [10739/C09] | 10.0 | 105.6
Cc1c(Br)ccc2c1C(=Cc1ccoc1)C(=O)N2 [10739/C10] | −7.1 | −18.6
Cc1c(Br)ccc2c1C(=Cc1ccc(CO)o1)C(=O)N2 [10739/C11] | 70.6 | 9.1
CNS(=O)(=O)c1ccc2c(c1)C(=Cc1ccc(OC)c(C)c1)C(=O)N2 [10739/D02] | 25.6 | 17.8
CNS(=O)(=O)c1ccc2c(c1)C(=Cc1cccc(OCc3ccccc3)c1)C(=O)N2 [10739/D03] | −18.3 | 14.4
CNS(=O)(=O)c1ccc2c(c1)C(=Cc1ccc(OCc3ccccc3)cc1)C(=O)N2 [10739/D04] | 11.8 | 7.2
CNS(=O)(=O)c1ccc2c(c1)C(=CC1COc3ccccc3O1)C(=O)N2 (stereo not drawn) [10739/D05] | 12.2 | −6.9
CNS(=O)(=O)c1ccc2c(c1)C(=Cc1ccc(O)cc1Cl)C(=O)N2 [10739/D06] | 9.0 | −43.8

SMILES | Flk Kinase % Inhibition (P.110) (FLK-1 receptor) [%] | PDGF Kinase % Inhibition (P.119) (PDGF-R) [%]
CNS(=O)(=O)c1ccc2c(c1)C(=Cc1cc(O)c(O)c(O)c1)C(=O)N2 [10739/D07] | −5.1 | 18.8
CNS(=O)(=O)c1ccc2c(c1)C(=Cc1cccc(Oc3ccc(OC)cc3)c1)C(=O)N2 [10739/D08] | 14.3 | 5.7
CNS(=O)(=O)c1ccc2c(c1)C(=Cc1ccc(OCCCN(C)C)cc1)C(=O)N2 [10739/D09] | −32.8 | 4.7
COc1ccc(C=C2C(=O)Nc3ccc(S(=O)(=O)Nc4ccc(C(F)(F)F)cc4)cc32)cc1C [10739/E02] | 26.7 | 18.3
O=C1Nc2ccc(S(=O)(=O)Nc3ccc(C(F)(F)F)cc3)cc2C1=Cc1cccc(OCc2ccccc2)c1 [10739/E03] | −119.0 | 2.8
O=C1Nc2ccc(S(=O)(=O)Nc3ccc(C(F)(F)F)cc3)cc2C1=Cc1ccc(OCc2ccccc2)cc1 [10739/E04] | 17.7 | 5.2
O=C1Nc2ccc(S(=O)(=O)Nc3ccc(C(F)(F)F)cc3)cc2C1=CC1COc2ccccc2O1 (stereo not drawn) [10739/E05] | 28.0 | 10.6
O=C1Nc2ccc(S(=O)(=O)Nc3ccc(C(F)(F)F)cc3)cc2C1=Cc1ccc(O)cc1Cl [10739/E06] | 34.3 | 72.7
O=C1Nc2ccc(S(=O)(=O)Nc3ccc(C(F)(F)F)cc3)cc2C1=Cc1cc(O)c(O)c(O)c1 [10739/E07] | 10.0 | 48.4
COc1ccc(Oc2cccc(C=C3C(=O)Nc4ccc(S(=O)(=O)Nc5ccc(C(F)(F)F)cc5)cc43)c2)cc1 [10739/E08] | 17.2 | 21.7
CN(C)CCCOc1ccc(C=C2C(=O)Nc3ccc(S(=O)(=O)Nc4ccc(C(F)(F)F)cc4)cc32)cc1 [10739/E09] | 24.5 | 18.3
O=C1Nc2ccc(S(=O)(=O)Nc3ccc(C(F)(F)F)cc3)cc2C1=Cc1ccoc1 [10739/E10] | 11.2 | 25.6
O=C1Nc2ccc(S(=O)(=O)Nc3ccc(C(F)(F)F)cc3)cc2C1=Cc1ccc(CO)o1 [10739/E11] | 15.3 | 15.9
COc1ccc(C=C2C(=O)Nc3ccc(S(=O)(=O)N4CCOCC4)cc32)cc1C [10739/F02] | 25.5 | 6.2
O=C1Nc2ccc(S(=O)(=O)N3CCOCC3)cc2C1=Cc1cccc(OCc2ccccc2)c1 [10739/F03] | 24.5 | −7.4
O=C1Nc2ccc(S(=O)(=O)N3CCOCC3)cc2C1=Cc1ccc(OCc2ccccc2)cc1 [10739/F04] | 26.3 | −4.0
O=C1Nc2ccc(S(=O)(=O)N3CCOCC3)cc2C1=CC1COc2ccccc2O1 (stereo not drawn) [10739/F05] | 8.7 | −4.5
O=C1Nc2ccc(S(=O)(=O)N3CCOCC3)cc2C1=Cc1ccc(O)cc1Cl [10739/F06] | 13.7 | 9.1
